Consider 32 molecules from patent publication US9908886B2 (Agency for Science, Technology and Research, priority 2012, dated 2018).

Test [1] addresses MNK2 (Homo sapiens (Human), UniProt Q9HBH9). In words: In vitro MNK kinase assay (Caliper LabChip mobility shift). The settings on record: enzymatic, 250 μM ATP; read-out: IC50 Mnk2. It is filed as biochemical.
In test [2] the target is MNK1 (Homo sapiens, UniProt Q9BUB5). The description is as above. It is filed as biochemical. The settings on record: enzymatic, 1.2 mM ATP; read-out: IC50 Mnk1.

Counter-ions that a name gives are not always drawn. Where only a bound is given, the exact number is not on record here.

Sequence of MNK2 (Q9HBH9 84-388): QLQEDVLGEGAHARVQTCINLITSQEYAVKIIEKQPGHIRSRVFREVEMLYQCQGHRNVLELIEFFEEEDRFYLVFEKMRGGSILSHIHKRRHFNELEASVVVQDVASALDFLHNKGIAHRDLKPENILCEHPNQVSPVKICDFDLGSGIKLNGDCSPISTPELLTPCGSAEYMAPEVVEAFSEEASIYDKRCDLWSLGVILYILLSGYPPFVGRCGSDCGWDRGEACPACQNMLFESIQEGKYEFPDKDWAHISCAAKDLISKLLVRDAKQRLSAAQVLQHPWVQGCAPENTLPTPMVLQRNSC

Usually IC50 stands for the concentration needed to halve the response being measured. For the molecule `N#Cc1ccc(-c2cnc3ccc(-c4ccc(C(=O)N5CCCOCC5)cc4)cn23)cc1` [Example 97], the IC50 in test [1] and in test [2] was under 0.1 µM each time.
Regarding `CC1(O)CCN(C(=O)c2ccc(-c3ccc4ncc(-c5ccc(C#N)cc5)n4c3)cc2)CC1` [Example 106, 4-(6-(4-(4-hydroxy-4-methylpiperidine-1-carbonyl)phenyl)imidazo[1,2-a]pyridin-3-yl)benzonitrile], the IC50 in test [1] and in test [2] was under 0.1 µM each time.
In the case of `CC(=O)Nc1cc(-c2ccc3ncc(-c4ccc(C#N)cc4)n3c2)ccc1C(=O)N1CCOCC1` [Example 166, N-(5-(3-(4-cyanophenyl)imidazo[1,2-a]pyridin-6-yl)-2-(morpholine-4-carbonyl)phenyl)acetamide], the IC50 in test [1] and in test [2] was under 0.1 µM in each case.
For the molecule `CCN(CC)C1(C)CCN(C(=O)c2ccc(-c3ccc4ncc(-c5ccc(C#N)cc5)n4c3)cc2)CC1` [Example 100, 4-(6-(4-(4-(diethylamino)-4-methylpiperidine-1-carbonyl)phenyl)imidazo[1,2-a]pyridin-3-yl)benzonitrile], the IC50 in test [1] and in test [2] was under 0.1 µM each time.
Turning to `CN(C)C1CCN(C(=O)c2ccc(-c3ccc4ncc(-c5ccc(C#N)cc5)n4c3)cc2)CC1` [Example 112, 4-(6-(4-(4-(dimethylamino)piperidine-1-carbonyl)phenyl)imidazo[1,2-a]pyridin-3-yl)benzonitrile], the IC50 in test [1] and in test [2] was under 0.1 µM in each case.
Turning to `CC1(N)CCN(C(=O)c2ccc(-c3ccc4ncc(-c5ccc(Cl)cc5)n4c3)cc2)CC1` [Example 173, (4-amino-4-methylpiperidin-1-yl)(4-(3-(4-chlorophenyl)imidazo[1,2-a]pyridin-6-yl)phenyl)methanone], the IC50 in test [1] and in test [2] was under 0.1 µM in each case.
On to `CC(=O)N1CCN(C(=O)c2ccc(-c3ccn4ncc(-c5ccc(C#N)cc5)c4n3)cc2)CC1` [Example 184], for which the IC50 in test [1] and in test [2] was under 0.1 µM throughout.
Turning to `CC1(N)CCN(C(=O)c2ccc(-c3cn4c(-c5ccc(C#N)cc5)cnc4cn3)cc2F)CC1` [Example 30, 4-(6-(4-(4-amino-4-methylpiperidine-1-carbonyl)-3-fluorophenyl)imidazo[1,2-a]pyrazin-3-yl)benzonitrile], the IC50 in test [1] and in test [2] was under 1 µM throughout.
For `CNc1cc(-c2ccc3ncc(-c4ccc(C#N)cc4)n3c2)ccc1C(=O)N1CCOCC1` [Example 151, 4-(6-(3-(methylamino)-4-(morpholine-4-carbonyl)phenyl)imidazo[1,2-a]pyridin-3-yl)benzonitrile], the IC50 in test [1] is under 0.1 µM; in test [2], under 1 µM.
The corresponding values for `CN1CCN(C2CCN(C(=O)c3ccc(-c4ccn5ncc(-c6ccc(C#N)cc6)c5n4)cc3)CC2)CC1` [Example 179, 4-(5-(4-(4-(4-methylpiperazin-1-yl)piperidine-1-carbonyl)phenyl)pyrazolo[1,5-a]pyrimidin-3-yl)benzonitrile] are under 0.1 µM and under 0.1 µM.
In the same order, the values of `COc1cc(-c2ccc3ncc(-c4ccc(C#N)cc4)n3c2)ccc1C(=O)N1CCOCC1` [Example 158] are under 0.1 µM and under 1 µM.
In the same order, the values of `N#Cc1ccc(-c2cnc3ccc(-c4ccc(C(=O)N5CCC(CCN)CC5)cc4)cn23)cc1` [Example 124, 4-(6-(4-(4-(2-aminoethyl)piperidine-1-carbonyl)phenyl)imidazo[1,2-a]pyridin-3-yl)benzonitrile] are under 0.1 µM and under 0.1 µM.
For the molecule `CN(C(=O)c1ccc(-c2ccc3ncc(-c4ccc(C#N)cc4)n3c2)cc1)c1ccncc1` [Example 122, 4-(3-(4-cyanophenyl)imidazo[1,2-a]pyridin-6-yl)-N-methyl-N-(pyridin-4-yl)benzamide], the IC50 in test [1] and in test [2] was under 1 µM throughout.
Take `CN1CCN(C(=O)c2ccc(-c3ccc4ncc(-c5ccc(C#N)cc5)n4c3)cc2N(C)C)CC1` [Example 147, 4-(6-(3-(dimethylamino)-4-(4-methylpiperazine-1-carbonyl)phenyl)imidazo[1,2-a]pyridin-3-yl)benzonitrile]: the IC50 in test [1] and in test [2] was under 0.1 µM each time.
On to `CN1CCN(C(=O)c2ccc(-c3ccc4ncc(-c5ccc(C#N)cc5)n4c3)cc2Cl)CC1` [Example 141, 4-(6-(3-chloro-4-(4-methylpiperazine-1-carbonyl)phenyl)imidazo[1,2-a]pyridin-3-yl)benzonitrile], for which the IC50 in test [1] and in test [2] was under 0.1 µM throughout.
On to `CN1CCN(C(=O)c2ccc(-c3ccc4ncc(-c5ccc(C#N)cc5)n4c3)cc2OC(F)(F)F)CC1` [Example 157], for which the IC50 in test [1] and in test [2] was under 1 µM each time.
For the molecule `O=C(c1ccc(-c2cn3c(-c4ccc(Cl)cc4)cnc3cn2)cc1)N1CCNCC1` [Example 46, (4-(3-(4-chlorophenyl)imidazo[1,2-a]pyrazin-6-yl)phenyl)(piperazin-1-yl)methanone 2,2,2-trifluoroacetate salt], the IC50 in test [1] and in test [2] was under 1 µM each time.
As for `N#Cc1ccc(-c2cnn3ccc(-c4ccc(C(=O)N5CCOCC5)c(O)c4)nc23)cc1` [Example 187, 4-(5-(3-hydroxy-4-(morpholine-4-carbonyl)phenyl)pyrazolo[1,5-a]pyrimidin-3-yl)benzonitrile], the IC50 in test [1] and in test [2] was under 0.1 µM in each case.
As to `CN1CCN(C(=O)c2ccc(-c3ccc4ncc(-c5ccc(C#N)cc5)n4c3)cc2N)CC1` [Example 146, 4-(6-(3-amino-4-(4-methylpiperazine-1-carbonyl)phenyl)imidazo[1,2-a]pyridin-3-yl)benzonitrile], the IC50 in test [1] and in test [2] was under 0.1 µM each time.
Consider `CN1CCN(C(=O)c2ccc(-c3ccc4ncc(-c5ccc6[nH]cnc6c5)n4n3)cc2)CC1` [Example 87, (4-(3-(1H-benzo[d]imidazol-5-yl)imidazo[1,2-b]pyridazin-6-yl)phenyl)(4-methylpiperazin-1-yl)methanone], for which the IC50 in test [1] and in test [2] was under 0.1 µM throughout.
Turning to `CC1(N2CCOCC2)CCN(C(=O)c2ccc(-c3ccc4ncc(-c5ccc(C#N)cc5)n4c3)cc2)CC1` [Example 163, 4-(6-(4-(4-methyl-4-morpholinopiperidine-1-carbonyl)phenyl)imidazo[1,2-a]pyridin-3-yl)benzonitrile], the IC50 in test [1] and in test [2] was under 0.1 µM each time.
`CN(C)C1CCN(C(=O)c2ccc(-c3ccc4ncc(-c5ccc(C#N)cc5)n4n3)cc2)CC1` [Example 63, 4-(6-(4-(4-(dimethylamino)piperidine-1-carbonyl)phenyl)imidazo[1,2-b]pyridazin-3-yl)benzonitrile]: the IC50 in test [1] and in test [2] was under 0.1 µM each time.
For `N#Cc1ccc(-c2cnc3cnc(-c4ccc(C(=O)N5CCC(O)CC5)cc4)cn23)cc1` [Example 15, 4-(6-(4-(4-hydroxypiperidine-1-carbonyl)phenyl)imidazo[1,2-a]pyrazin-3-yl)benzonitrile], the IC50 in test [1] and in test [2] was under 1 µM in each case.
Take `CCC1(NC(C)=O)CCN(C(=O)c2ccc(-c3ccc4ncc(-c5ccc(C#N)cc5)n4n3)cc2)CC1` [Example 66, N-(1-(4-(3-(4-cyanophenyl)imidazo[1,2-b]pyridazin-6-yl)benzoyl)-4-ethylpiperidin-4-yl)acetamide]: the IC50 in test [1] and in test [2] was under 0.1 µM throughout.
As for `N#Cc1ccc(-c2cnc3ccc(-c4ccc(C(=O)N5CCCNCC5)cc4)cn23)cc1` [Example 107, 4-(6-(4-(1,4-diazepane-1-carbonyl)phenyl)imidazo[1,2-a]pyridin-3-yl)benzonitrile], the IC50 in test [1] and in test [2] was under 0.1 µM each time.
For the molecule `CNC1CCN(C(=O)c2ccc(-c3ccc4ncc(-c5ccc(C#N)cc5)n4n3)cc2)CC1` [Example 60, 4-(6-(4-(4-(methylamino)piperidine-1-carbonyl)phenyl)imidazo[1,2-b]pyridazin-3-yl)benzonitrile], the IC50 in test [1] and in test [2] was under 0.1 µM in each case.
Turning to `CN1CCCN(C(=O)c2ccc(-c3ccc4ncc(-c5ccc(C#N)cc5)n4c3)cc2)CC1` [Example 103, 4-(6-(4-(4-methyl-1,4-diazepane-1-carbonyl)phenyl)imidazo[1,2-a]pyridin-3-yl)benzonitrile], the IC50 in test [1] and in test [2] was under 0.1 µM throughout.
As to `N#Cc1ccc(-c2cnc3cnc(-c4ccc(C(=O)N5CCN(C6CC6)CC5)cc4)cn23)cc1` [Example 14, 4-(6-(4-(4-cyclopropylpiperazine-1-carbonyl)phenyl)imidazo[1,2-a]pyrazin-3-yl)benzonitrile], the IC50 in test [1] and in test [2] was under 1 µM each time.
Take `CC(C)(C)N1CCN(C(=O)c2ccc(-c3cn4c(-c5ccc(C#N)cc5)cnc4cn3)cc2)CC1` [Example 26, 4-(6-(4-(4-tert-butylpiperazine-1-carbonyl)phenyl)imidazo[1,2-a]pyrazin-3-yl)benzonitrile]: the IC50 in test [1] and in test [2] was under 1 µM in each case.
`CN1CCN(C(=O)c2ccc(-c3ccc4ncc(-c5ccc6[nH]ncc6c5)n4n3)cc2)CC1` [Example 86, (4-(3-(1H-indazol-5-yl)imidazo[1,2-b]pyridazin-6-yl)phenyl)(4-methylpiperazin-1-yl)methanone]: the IC50 in test [1] and in test [2] was under 0.1 µM each time.
`Cc1cc2ncc(-c3ccc(C#N)cc3)n2cc1-c1ccc(C(=O)N2CCN(C)CC2)cc1` [Example 138, 4-(7-methyl-6-(4-(4-methylpiperazine-1-carbonyl)phenyl)imidazo[1,2-a]pyridin-3-yl)benzonitrile]: the IC50 in test [1] and in test [2] was under 1 µM each time.
For `N#Cc1ccc(-c2cnc3ccc(-c4ccc(C(=O)N5CCC6(CCCCN6)CC5)cc4)cn23)cc1` [Example 117, 4-(6-(4-(1,9-diazaspiro[5.5]undecane-9-carbonyl)phenyl)imidazo[1,2-a]pyridin-3-yl)benzonitrile], the IC50 in test [1] and in test [2] was under 0.1 µM throughout.
